Bounds are passed on as bounds.

Series [1] concerns D2/3R. Briefly: MicroPET study in rats. Conditions: saline pre-treated rats; peak (45 min post-injection for [^18F]FEt-AMC13 and [^11C]raclopride). The class given is in vivo, Sprague-Dawley rats. The protocol:
Animal experiments were performed by licensed investigators in compliance with the Law on Animal Experiments of The Netherlands. The protocol was approved by the Committee on Animal Ethics of the University of Groningen. Young male (10–12 weeks of age, 300–350 g body weight) Sprague-Dawley rats (Harlan, the Netherlands) were used for all experiments. The rats were maintained at a 12-h light/12-h dark regime and were fed standard laboratory chow ad libitum.
Distribution of the radiotracers was studied in rats pre-treated, at random, with physiological saline (controls) or raclopride tartrate (1 mg/kg calculated per raclopride base, equivalent to 2.9 μmol/kg). Saline and raclopride were administered intravenously (1 mL/kg injected volume).
An additional group of saline pre-treated rats, injected with [^11C]raclopride, served as positive controls for D2/3R-specific brain uptake.
Two rats were scanned simultaneously. Before all manipulations, animals were anesthetized with a mixture of isoflurane/air (inhalation anesthesia, 5 % ratio during induction, 2 % at maintenance). Cannulae were placed into the rats’ left femoral arteries and veins; the operation took 45–50 min. The rats were positioned supine inside the camera (Focus 220 microPET, Siemens-Concorde), one above the other with their heads in the camera’s field of view. A 515-s transmission scan with a Co-57 point source was performed. Tracer was injected through the venous cannula as a slow bolus (1 mL volume, 60 s long) using an infusion pump. The second (upper) animal was injected 16 min after the first (lower).
PET acquisition was started during the injection of radioactivity in the first rat. A 106-min long (76 min long in the case of [^11C]raclopride) list-mode acquisition protocol was used for the scan.
List-mode data from the 106-min-long and 76-min-long scans were reframed into, respectively, 90-min-long and 60-min-long dynamic sequences of 6 × 10, 4 × 30, 2 × 60, 1 × 120, 1 × 180, 4 × 300, 3 × 600, and (for 90-min-long scans) 2 × 900 s frames. The data were reconstructed per time frame using an iterative reconstruction algorithm (attenuation-weighted 2-dimensional ordered-subset expectation maximization, provided by Siemens; 4 iterations, 16 subsets; zoom factor 2). Datasets were fully corrected for random coincidences, scatter, and attenuation. Data from the transmission scan were used for attenuation correction. The final datasets consisted of 95 slices, with a slice thickness of 0.8 mm and an in-plane image matrix size of 128 × 128 and pixel size of 0.47 × 0.47 mm.
Reconstructed images were analyzed with Inveon 2.0 software (Siemens Medical Solutions, USA, Inc). Regions of interest (ROIs) were drawn manually on a T2-weighted MRI template of rat brain around the striatum, brainstem, cortex, hippocampus, hypothalamus, thalamus, olfactory bulbs, and cerebellum around the whole brain and around the pituitary gland. The MRI template was co-registered with the PET scan by image fusion. The time-activity curves (TAC) per ROI were determined in Bq/cm^3 units and converted into standardized uptake values (SUVs).
(§1) Degree of D2/3R-specific binding of the tracers was characterized by BPND (as given above) or the specific binding ratio (SBR) given as target region activity/cerebellar activity - 1. Both were calculated under control conditions and in response to the raclopride challenge.

The test system of series [2] is D2/3R against serotonin-1A and adrenergic α1 receptors. More on the design: method as in PMID 9435894. To be noted: cited from earlier work.
Series [3] concerns D2/3R. To be noted: cited from earlier work; for displacement of apparent D2/3R-specific striatal uptake: Sprague-Dawley rats, 1–2 mg/kg (2.9–5.8 μmol/kg) raclopride.
The subject of series [4] is D2/3R. Kind of series: In vitro autoradiography of rat brain slices. In kind it is binding, Sprague-Dawley rats. Conditions: for Striatal SBR % change relative to control condition, Raclopride / Striatal SBR, Raclopride: with 10 μM raclopride; for Striatal SBR % change relative to control condition, GTP / Striatal SBR, GTP: with 100 μM GTP. On the procedure: In vitro autoradiography assay was performed as previously described. Frozen brains of young (10–12 weeks of age; 300–350 g body weight) male Sprague-Dawley rats (Harlan, Netherlands) were cut at −12 °C into sagittal slices 20 μm thick using a Leica microtome, and the slices were thaw-mounted on Superfrost (70 × 22 mm, Fischer) adhesive slides. Only slices containing both striatal and cerebellar regions were used. The slides with slices mounted them were allowed to dry, then put into storage boxes with silica gel bags and stored at −80 °C.
On the day of the experiment (within 1 week from the preparation of the slices), the slides were taken out of storage and allowed to come to room temperature for 5–10 min. Then, 1–1.2 mL of incubation buffer (50 mM Tris-HCl, 5 mM KCl, 2 mM CaCl2, 2 mM MgCl2, 120 mM NaCl, pH 7.4 25 °C) was applied per slide, and the slides were pre-incubated for 15 min at room temperature. The buffer was then removed, and the slides were placed into staining jars containing radioligand solution (concentration range of 0.1–10 nM) in the incubation buffer with or without 10 μM raclopride (D2/3 antagonist) or 100 μM guanosine-5'-triphosphate sodium salt (GTP, stimulator of G-protein uncoupling from the receptors). After 35 min of incubation at 37 °C, slides were washed once with ice-cold incubation buffer (3.5 min) and dipped for 30 s into ice-cold distilled water to remove buffer salts.
After drying the slides in a stream of room-temperature air, they were exposed on phosphor storage screens for 6–10 h. The storage screens were read by Cyclone Storage Phosphor System (Packard Instruments Co.). Quantification of plate readings was done with OptiQuant software (version 3.00, Packard Instruments Co.).
as §1

Series [5] in a line: LogD measurement (n-octanol/phosphate buffer). Conditions: n-octanol / 1 M phosphate buffer pH 7.4. In kind it is physicochemical. On the procedure:
LogD of the tracers was measured using the radioactivity remaining on the HLB SPE cartridges after their elution with ethanol during the tracer formulation procedure (see above). The cartridge was dried with nitrogen for 5 min and eluted with at least 1.5 mL n-octanol. A 500 μL portion of octanol eluate was mixed with 500 μL of 1 M phosphate buffer (pH 7.4) and vigorously vortexed for 5 min. The mixture was then centrifuged at 17,000g for 10 min and 3 × 100 μL aliquots of organic and aqueous phase were loaded into a gamma-counter for radioactivity measurement. To correct for possible presence of radioactive impurities in the tracer, aliquots of organic and aqueous phases were later analyzed by radio-TLC, and the counts obtained from the gamma-counter were corrected according to the percentage of impurities found in aqueous and organic phases. LogD was calculated with the following formula: LogD=lgCPMorg×Xorgtracer/CPMaq×Xaqtracer,
where CPMorg is the mean radioactivity of the organic aliquots, Xorgtracer is the mean percentage of radioactivity accounting for intact tracer in organic aliquots (as determined from radio-TLC), and CPMaq and Xaqtracer are the corresponding values for the aqueous phase.
For each tracer batch used for logD determination, the experiment was performed in duplicate. LogD values are means calculated from at least two independent experiments.

Series [6] concerns D2/3R. Briefly: Kinetic analysis of PET data (1TCM, 2TCM, Logan, SRTM). The class given is in vivo, Sprague-Dawley rats. Conditions: 1 mg/kg raclopride, measured with [^18F]FEt-AMC13. On the procedure:
Kinetic analysis is described using the nomenclature proposed by Innis et al.. ROI TACs of [^18F]FEt-AMC13 were analyzed with one-tissue and two-tissue compartmental models of reversible binding (1TCM and 2TCM, respectively) to obtain individual rate constants. From these, the regional distribution volumes (VT) were calculated and compared to those obtained with Logan graphical analysis. Binding potentials (BPND) were calculated from the distribution ratios as VT (target) / VT (cerebellum) – 1, or estimated with the simplified reference tissue model (SRTM) using the cerebellum as reference region.
Metabolite-corrected plasma-derived arterial input function and whole blood time-activity curve were used for Logan, 1TCM, and 2TCM analyses. Fractional cerebral blood volume was set to 3.6 % [27]. For one rat in the raclopride-treated group, no input curves could be obtained; therefore, its PET data were only analyzed with SRTM.
as §1

Turning to `CCN1CCC[C@H]1CNC(=O)c1c(O)c(Cl)cc(Cl)c1O[11CH3]` (racemic) [[^11C]raclopride, reference compound], the “Striatum-to-cerebellum uptake ratio (PET)” value in the series on D2/3R [1] was 7.45 ± 1.60.
For the compound `Oc1ccc2c(c1)O[C@@H](CNCc1ccccc1)CC2` [(R)-2-[(benzylamino)methyl]chroman-7-ol], the selectivity result in series [2] was “selective for D2/3R against serotonin-1A and adrenergic α1 receptors”.
`CCCN1CCc2cc(O[11CH3])cc3c2C1Cc1ccc(O)c(O)c1-3` (stereo not shown) [[^11C]MNPA]: the “displacement of apparent D2/3R-specific striatal uptake” value in the series with D2/3R [3] is listed as greater than 90%.
Consider `CC[11CH2]N1CCO[C@@H]2c3cc(O)ccc3CCC21` (stereo partly shown) [[^11C]PHNO], for which the “displacement of apparent D2/3R-specific uptake” value in the series on D2/3R [3] (0.2 mg/kg (0.58 μmol/kg) raclopride) was “over 80%”. Also, the “displacement of apparent D2/3R-specific striatal uptake” value in the series on D2/3R [3] was greater than 90%.
For the compound `CCCN(CCC[18F])C1CCc2c(O)cccc2C1` (stereo not shown) [[^18F]5-OH-FPPAT], the striatum-to-cerebellum ratio with D2/3R [3] (rats) is reported as 2.
By logD is commonly meant lipophilicity at a set pH, counting ionised and neutral species. Turning to `Oc1ccc2c(c1)O[C@@H](CNCCN1CCN(c3ccc(OCCCC[18F])cc3)CC1)CC2` [[^18F]FBu-AMC15], in the series on D2/3R [4], the “Striatal SBR % change relative to control condition, Raclopride” value is reported as −64%; the “Striatal SBR, Raclopride” value turned out to be 0.25 ± 0.23; the “Striatal SBR % change relative to control condition, GTP” value is reported as −67%; the “Striatal SBR, GTP” value was 0.23 ± 0.23. Moreover, in series [5], the logD was determined as 2.71 ± 0.07.
The like results for `Oc1ccc2c(c1)O[C@@H](CNCc1ccc(OCCC[18F])cc1)CC2` [[^18F]FPr-AMC13] were, in that order, −80%, 0.41 ± 0.23, −80%, 0.42 ± 0.23 and 1.98 ± 0.08.
Taken in the same sequence, the figures for `Oc1ccc2c(c1)O[C@@H](CNCCN1CCN(c3ccc(OCCC[18F])cc3)CC1)CC2` [[^18F]FPr-AMC15] were −61%, 0.39 ± 0.22, −63%, 0.37 ± 0.24 and 2.39 ± 0.001.
On to `CCN1CCC[C@H]1CNC(=O)c1c(O)c(Cl)cc(Cl)c1OC` [raclopride, reference compound], for which, in the series with D2/3R [6], the “raclopride-induced D2/3R occupancy (modified Lassen plot)” value is listed as 20–25%.
